Data on three compounds can be found in article PMC12119275 (Frontiers in Molecular Biosciences, 2025).

Data set [1] has as its system SARS-CoV-2. Description: microbe, parasite or virus in culture. The class given is cell-based. Particulars: Severe acute respiratory syndrome coronavirus 2, A549, read-out: IC50, inhibition of SARS-CoV-2 infection of A549-hACE2 cells.
In data set [2] the test system is SARS-CoV-1pp. Description: microbe, parasite or virus in culture. The data set is classed as cell-based. As to conditions: Severe acute respiratory syndrome coronavirus, HEK293, 48 h, read-out: EC50 SARS-CoV-1pp.
For data set [3], the system named is SARS-CoV-2pp. Description: microbe, parasite or virus in culture. The data set is classed as cell-based. Particulars: for EC50: Severe acute respiratory syndrome coronavirus 2, HEK293, 48 h, read-out: EC50 SARS-CoV-2pp; for IC50: Severe acute respiratory syndrome coronavirus 2, HEK293, read-out: IC50, inhibition of SARS-CoV-2pp infection of HEK-293-hACE2 cells.

The test system of data set [4] is B.1.1.7 (alpha) SARS-CoV-2pp. In words: microbe, parasite or virus in culture. The class given is cell-based. As to conditions: Severe acute respiratory syndrome coronavirus 2, HEK293, 48 h, read-out: EC50 B.1.1.7 (alpha) SARS-CoV-2pp.
For data set [5], the system named is B.1.351 (beta) SARS-CoV-2pp. In words: microbe, parasite or virus in culture. The data set is classed as cell-based. As to conditions: Severe acute respiratory syndrome coronavirus 2, HEK293, 48 h, read-out: EC50 B.1.351 (beta) SARS-CoV-2pp.
For data set [6], the system named is B.1.617.2 (delta) SARS-CoV-2pp. Description: microbe, parasite or virus in culture. As to conditions: Severe acute respiratory syndrome coronavirus 2, HEK293, 48 h, read-out: EC50 B.1.617.2 (delta) SARS-CoV-2pp. The class given is cell-based.
Data set [7] relates to B.1.1.28 (gamma) SARS-CoV-2pp. Description: microbe, parasite or virus in culture. The class given is cell-based. Particulars: Severe acute respiratory syndrome coronavirus 2, HEK293, 48 h, read-out: EC50 B.1.1.28 (gamma) SARS-CoV-2pp.
The subject of data set [8] is B.1.1.529 (omicron) SARS-CoV-2pp. In words: microbe, parasite or virus in culture. The data set is classed as cell-based. Particulars: Severe acute respiratory syndrome coronavirus 2, HEK293, 48 h, read-out: EC50 B.1.1.529 (omicron) SARS-CoV-2pp.
Data set [9] has as its system BA.2 SARS-CoV-2pp. Description: microbe, parasite or virus in culture. The data set is classed as cell-based. Particulars: Severe acute respiratory syndrome coronavirus 2, HEK293, 48 h, read-out: EC50 BA.2 SARS-CoV-2pp.
Data set [10] relates to MERSpp. Description: microbe, parasite or virus in culture. The data set is classed as cell-based, MERS. As to conditions: Middle East respiratory syndrome-related coronavirus, HeLa, 48 h, read-out: EC50 MERSpp.
Data set [11] relates to SARS CoV-2 2019-nCoV/USA-WA1/2020. Description: Efficacy in SARS-CoV2 infected K18-hACE2 mice (lung viral load by plaque assay). The class given is in vivo. As to conditions: 2 h before and 24 h after infection, 3 days post-infection; for effect on SARS-CoV2 viral load in lung homogenates: 100 mg/kg p.o. at 24 h before.
Data set [12] deals with SARS-CoV-2. As to conditions: ref Dittmar et al., 2021; cited from earlier work.
Data set [13] concerns COVID-19. Particulars: Phase 2 clinical trial; ref BerGenBio, 2022; cited from earlier work.
A short description of data set [14]: Pharmacokinetics analysis in mice. Particulars: C57 Bl/6, mouse, plasma, po.
Data set [15] relates to A549 cells. In words: A549 cell vacuolization analysis (phase contrast). As to conditions: 5 µM, 24 h.
For data set [16], the system named is A549 cells. Description: A549 cell phospholipidosis (NBD-PE staining assay). As to conditions: 24 h, dose-range; amiodarone positive control.
For data set [17], the target named is T1, AXL kinase (Homo sapiens, UniProt P30530).
T1 construct: purchased Reaction Biology
T1 sequence (P30530 26-894): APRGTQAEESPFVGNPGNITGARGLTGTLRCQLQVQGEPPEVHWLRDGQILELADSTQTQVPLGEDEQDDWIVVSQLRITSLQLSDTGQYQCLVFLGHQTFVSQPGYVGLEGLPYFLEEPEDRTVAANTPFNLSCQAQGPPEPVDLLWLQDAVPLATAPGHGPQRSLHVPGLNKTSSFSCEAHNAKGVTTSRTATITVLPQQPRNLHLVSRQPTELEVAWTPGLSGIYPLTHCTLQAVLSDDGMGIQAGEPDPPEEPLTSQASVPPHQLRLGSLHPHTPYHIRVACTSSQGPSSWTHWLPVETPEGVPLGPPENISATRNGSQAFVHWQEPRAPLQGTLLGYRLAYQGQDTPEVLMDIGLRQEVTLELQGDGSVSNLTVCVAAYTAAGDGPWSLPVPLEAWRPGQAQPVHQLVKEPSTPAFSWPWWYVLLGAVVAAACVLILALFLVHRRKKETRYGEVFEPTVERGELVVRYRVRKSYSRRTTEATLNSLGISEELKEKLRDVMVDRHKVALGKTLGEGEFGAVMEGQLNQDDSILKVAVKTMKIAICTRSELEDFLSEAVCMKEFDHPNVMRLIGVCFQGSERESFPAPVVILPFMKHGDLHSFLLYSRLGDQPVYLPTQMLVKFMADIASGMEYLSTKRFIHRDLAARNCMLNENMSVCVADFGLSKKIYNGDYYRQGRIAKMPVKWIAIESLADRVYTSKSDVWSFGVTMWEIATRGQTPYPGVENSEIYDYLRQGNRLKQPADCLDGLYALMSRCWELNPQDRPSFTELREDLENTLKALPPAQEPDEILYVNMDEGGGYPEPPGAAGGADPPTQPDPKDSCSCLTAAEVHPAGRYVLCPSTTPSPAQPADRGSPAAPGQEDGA
Description: AXL kinase assay (Reaction Biology Hot Spot, 33P-ATP). The class given is biochemical.

As to `Nc1nc(Nc2ccc3c(c2)CC[C@@H](N2CCCC2)CC3)nn1-c1cc2c(nn1)-c1ccccc1CCC2` [Bemcentinib, bemcentinib, reference compound], the IC50 in data set [1] turned out to be 70 nM; in data set [3], 5.7 µM. In addition, the EC50 is 910 ± 10 nM in data set [2]; 5680 ± 3760 nM in [3]; 430 ± 180 nM in data set [4]; 390 ± 140 nM in [5]; 380 ± 140 nM in data set [6]; 420 ± 120 nM in data set [7]. Further, the EC50 in data set [8] is 210 ± 10 nM; in [9] it was 160 ± 30 nM; in data set [10], 90 ± 10 nM. Further, in [11], the “effect on SARS-CoV2 viral load in lung homogenates” value is “failed to reduce SARS-CoV2 viral load”. Further, the “inhibition of SARS-CoV-2 infection of human lung Calu-3 cells” value in data set [12] was “inhibits SARS-CoV-2 infection of human lung Calu-3 cells”. Besides, the “clinical response in patients hospitalized with COVID-19” value in data set [13] was “improved clinical response and key secondary endpoints”. For the same compound, in [14] (100 mg/kg), the AUC was determined as 33300 ng·h/mL. In data set [14] (100 mg/kg), the Cmax worked out at 1760 ng/mL. The Tmax in data set [14] (100 mg/kg) worked out at 13 h. Moreover, the “vacuolization in human lung A549 cells” value in data set [15] is reported as “induced significant vacuolization”. In addition, in data set [16], the “phospholipidosis in A549 cells (NBD-PE staining)” value is reported as “neither compound demonstrated phospholipidosis”.

As to `FC(F)(F)c1nc(Nc2ccc3c(c2)CCC(N2CCCC2)CC3)n(-c2cc3c(nn2)-c2ccccc2CCC3)n1` (centres unmarked) [WYS-694], the EC50 came to 820 ± 1020 nM in data set [2]; 80 ± 30 nM in [3]; 120 ± 70 nM in data set [4]; 180 ± 110 nM in [5]; 130 ± 90 nM in [6]; 160 ± 150 nM in [7]. The EC50 in data set [8] is 130 ± 120 nM; in data set [9], 450 ± 440 nM. In addition, in data set [3], the “fold more potent than WYS-633 in inhibiting viral entry” value amounted to 12.5 fold. The “reduction of SARS-CoV-2 viral load in lung homogenates” value in [11] (30 mg/kg p.o. at 24 h before) is reported as “more than 4 fold”. For the same compound, the AUC in [14] (30 mg/kg) was 10700 ng·h/mL. The same compound had a Cmax in [14] (30 mg/kg) of 556 ng/mL. The Tmax in data set [14] (30 mg/kg) amounted to 24 h.

Regarding `c1ccc2c(c1)CCCc1cc(-c3nnc(Nc4ccc5c(c4)CCC(N4CCCC4)CC5)o3)nnc1-2` (centres unmarked) [WYS-633], the IC50 in data set [1] is 610 nM; in data set [3], 2.52 µM. Also, the EC50 in [2] amounted to 750 ± 70 nM; in data set [3], 2520 ± 2260 nM; in data set [4] it was 1230 ± 580 nM; in data set [5], 1250 ± 50 nM; in data set [6], 1050 ± 370 nM; in data set [7] it was 1660 ± 710 nM. The EC50 was found to be 1030 ± 650 nM in [8], 680 ± 290 nM in data set [9] and 310 ± 120 nM in data set [10]. In addition, in [17], the “activity against AXL kinase (in words)” value is “inactive”. In addition, the “effect on SARS-CoV2 viral load in lung homogenates” value in data set [11] was “failed to reduce SARS-CoV2 viral load”. The AUC in data set [14] (100 mg/kg) was 7920 ng·h/mL. The Cmax in data set [14] (100 mg/kg) was 950 ng/mL. The time to peak (Tmax) in data set [14] (100 mg/kg) came out at 2 h. For the same compound, in data set [15], the “vacuolization in human lung A549 cells” value is on record as “did not”. In data set [16], the “phospholipidosis in A549 cells (NBD-PE staining)” value is “neither compound demonstrated phospholipidosis”.
